Data set [1] is described as follows: Solubility of the compound in water. The format is physicochemical.
Data set [2] in a line: Half life in rat liver microsomes. The format is ADME, Microsome.
Data set [3] is described as follows: Hepatic clearance in rat liver microsomes. The format is ADME, Microsome.
A short description of data set [4]: Metabolic stability in rat liver microsomes. In kind it is ADME, Microsome. For orientation: Microsomes from liver hold many membrane-bound enzymes, among them those of drug oxidation.
Data set [5] is filed under the species Homo sapiens. The experiment in a line: Selectivity for PDE1 (unknown origin) over PDE9 (unknown origin).
The species entered for data set [6] is Homo sapiens. The data set can be described thus: Selectivity for PDE5 (unknown origin) over PDE9 (unknown origin).

SMILES strings stand for the structures. In brackets after ≈: the same amount, converted by molar mass.

A word on the solubility: it is the concentration that dissolves in the medium under given conditions. The low end stands for a poorly soluble substance, the high end for a readily soluble substance.

The compound `C[C@@H](Nc1nc2c(cnn2C2CCCC2)c(=O)[nH]1)C(=O)Nc1ccc(C(F)(F)F)cn1` had a solubility in data set [1] of 6.3 µg/mL (≈ 14.5 µM).
On the same count and under the same terms, the figure for `C[C@@H](Nc1nc2c(cnn2C2CCCC2)c(=O)[nH]1)C(=O)NC1=NCCS1` is 0.03 µg/mL (≈ 0.0799 µM); for `C[C@@H](Nc1nc2c(cnn2C2CCCC2)c(=O)[nH]1)C(=O)Nc1cnc(Cl)nc1` it is 0.5 µg/mL (≈ 1.24 µM); for `C[C@@H](Nc1nc2c(cnn2C2CCCC2)c(=O)[nH]1)C(=O)Nc1nccs1` it is 25 µg/mL (≈ 66.9 µM).
On the same count and under the same terms, the figure for `C[C@@H](Nc1nc2c(cnn2C2CCCC2)c(=O)[nH]1)C(=O)Nc1ccncc1` is 20 µg/mL (≈ 54.4 µM).
As for `C[C@@H](Nc1nc2c(cnn2C2CCCC2)c(=O)[nH]1)C(=O)Nc1ccc2nccn2c1`, the solubility in data set [1] is 74 µg/mL (≈ 182 µM). Besides, the t1/2 in data set [2] was 32.6 min. The compound further gave a CLH in data set [3] of 11.8 mL/min/kg. In data set [4], this compound displayed a Stability of 40.8%.
In data set [1], `C[C@@H](Nc1nc2c(cnn2C2CCCC2)c(=O)[nH]1)C(=O)Nc1ccc2c(c1)CCC2=O` registered a solubility of 6 µg/mL (≈ 14.3 µM).
The same measure, in the same setting: the figure for `C[C@@H](Nc1nc2c(cnn2C2CCCC2)c(=O)[nH]1)C(=O)Nc1ccc2c(c1)COC2` is 0.03 µg/mL (≈ 0.0734 µM).
Take `COc1ccc(NC(=O)[C@@H](C)Nc2nc3c(cnn3C3CCCC3)c(=O)[nH]2)cc1`: in data set [1], the solubility turned out to be 0.04 µg/mL (≈ 0.101 µM). In data set [2], this compound registered a t1/2 of 23.3 min. The same compound had a CLH in data set [3] of 65.8 mL/min/kg.
On to `CC(Nc1nc2c(cnn2C2CCCC2)c(=O)[nH]1)c1ccc(Cl)cc1` (stereo unspecified), for which the Selectivity ratio was found to be 46 in the data set filed under Homo sapiens [5] and 31 in the data set filed under Homo sapiens [6].
Turning to `C[C@@H](Nc1nc2c(cnn2C2CCCC2)c(=O)[nH]1)C(=O)Nc1ccc(C(F)(F)F)nc1`, the solubility in data set [1] is 5.1 µg/mL (≈ 11.7 µM).
The compound `C[C@@H](Nc1nc2c(cnn2C2CCCC2)c(=O)[nH]1)C(=O)Nc1ccc2[nH]cnc2c1` registered a solubility in data set [1] of 195 µg/mL (≈ 480 µM). In data set [2], this compound had a t1/2 of 57 min. The same compound displayed a CLH in data set [3] of 9.07 mL/min/kg. In data set [4], the Stability is on record as 54.7%.
Compound `C[C@@H](Nc1nc2c(cnn2C2CCCC2)c(=O)[nH]1)C(=O)Nc1ccc2c(c1)CNC2=O` showed a solubility in data set [1] of 0.1 µg/mL (≈ 0.237 µM).
`C[C@@H](Nc1nc2c(cnn2C2CCCC2)c(=O)[nH]1)C(=O)Nc1ccc2[nH]ncc2c1` had a solubility in data set [1] of 103 µg/mL (≈ 253 µM). In data set [2], this compound showed a t1/2 of 43.4 min. In data set [3], this compound had a CLH of 10 mL/min/kg. In addition, the Stability in data set [4] is on record as 47.8%.
For `C[C@@H](Nc1nc2c(cnn2C2CCCC2)c(=O)[nH]1)C(=O)Nc1ccc(F)nc1`, in data set [1], the solubility turned out to be 52 µg/mL (≈ 135 µM). The compound further came in with a t1/2 in data set [2] of 32.8 min. The compound further returned a CLH in data set [3] of 11.8 mL/min/kg. Further, the Stability in data set [4] came to 41%.
In the case of `C[C@@H](Nc1nc2c(cnn2C2CCCC2)c(=O)[nH]1)C(=O)Nc1ccc2[nH]ccc2c1`, in data set [1], the solubility was 0.1 µg/mL (≈ 0.247 µM).

The values above are taken from ChEMBL document CHEMBL4622910, “Design, synthesis and evaluation of pyrazolopyrimidinone derivatives as novel PDE9A inhibitors for treatment of Alzheimer's disease” (Bioorg Med Chem Lett, 2020).
